According to PubChem BioAssay AID1963863 (Molecular Pharmacology Branch, DTP, NCI, 2024):

Test system: 931267-113-T-J1-PDC KRAS spheroid with HUVEC/MSC, viability
Test: Anticancer human tumor 931267-113-T-J1-PDC patient-derived colon adenocarcinoma cell line growth inhibition [KRAS2]
Conditions: for IC50: curve of first compound; for viability, T/C: stronger effect = lower value
Description: Multicellular complex tumor spheroid response to RAS pathway inhibitors in combination with a targeted agents in patient-derived cell lines with oncogenic KRAS variants from multiple cancer types
A high-throughput screen of multi-cell type tumor spheroids was designed to identify active combinations of targeted small molecules and KRAS pathway inhibitors. Complex spheroids include a stromal component modeled by human endothelial cells (HUVEC) and fibroblasts modeled by human mesenchymal stem cells (MSCs). The concentration ranges selected for each drug and investigational agent were based upon clinically achievable concentrations if the clinical Cmax of the agent was known.
Compounds. The drugs and investigational agents: BI-3406 (NSC825286), BAY-293 (NSC824723), batoprotafib (TNO155; NSC825523), sotorasib (AMG 510; NSC818433), MRTX1257 (NSC819558), elimusertib (BAY 1895344; NSC800525), molibresib (GSK525762; NSC774829), temuterkib (LY3214996; NSC803410), venetoclax (NSC766270), alisertib (NSC759677), olaparib (NSC753686), talazoparib (NSC767125), erdafitinib (NSC781556), ipatasertib (NSC767898), cabozantinib (NSC761068), nintedanib (NSC756659), abemaciclib (NSC768073), docetaxel (NSC628503), trametinib (NSC758246), and sapanisertib (NSC764658) were obtained from the National Cancer Institute (NCI) Developmental Therapeutics Program Chemical Repository. The FDA-approved anticancer drug set is available from the Developmental Therapeutics Program. […] The stock solutions were prepared in dimethyl sulfoxide (DMSO, Sigma-Aldrich, St. Louis, MO, cat. D2650) at 800-fold the tested concentration and stored at -70 degrees C prior to their use. All drugs and investigational agents were tested over a range starting from a high concentration at or near the clinical Cmax and decreasing in half-log increments. If the clinical Cmax for an agent had not been determined, the highest concentration tested was 10 microM.
Cell Culture. All cells were maintained in an incubator at 37 degrees C and 5% CO2 with 95% humidity. The PDC lines were cultured according to standard operating procedures established by the NCI PDMR (https://pdmr.cancer.gov/sops/default.htm). Briefly, all PDCs were thawed and cultured in Matrigel-coated flasks prepared with a working solution of 1X Ham's F-12 nutrient mix, without supplementation (Invitrogen, Waltham, MA, cat. 11765054), 100 U/mL penicillin-streptomycin (Invitrogen, cat. 15140122), and 2.5% Matrigel (Corning Inc., Corning, NY, cat. 354248) for the first three passages. All PDCs were cultured in complete DMEM/F-12 media containing advanced DMEM/F-12 (Invitrogen, cat. 12634028), 4.9% defined fetal bovine serum, heat inactivated (HyClone Laboratories Inc., Logan, UT, cat. SH30070.03HI), 389 ng/mL hydrocortisone (Sigma-Aldrich, cat. H4001), 9.7 ng/mL human EGF recombinant protein (Invitrogen, cat. PHG0313), 23.4 microg/mL adenine (Sigma-Aldrich, cat. A2786), 97.3 U/mL penicillin-streptomycin (Invitrogen, cat. 15140122), 1.9 mM L-glutamine (Invitrogen, cat. 25030081), and 9.7 microM Y-27632 dihydrochloride (Tocris Bioscience, Bristol, United Kingdom, cat. 1254). The PDCs were cultured in complete DMEM/F12 media without 9.7 microM Y-27632 dihydrochloride for at least two passages prior to the screen. The established cell line HOP-62 was cultured in RPMI 1640 medium, HEPES (Invitrogen, cat. 22400105) with 10% defined fetal bovine serum (HyClone Laboratories Inc., cat. SH30070.03) and 2 mM L-glutamine (Invitrogen, cat. 25030081). The pooled donor HUVEC were cultured in endothelial cell growth medium 2 (PromoCell, Heidelberg, Germany, cat. C-22011) and the hMSC were cultured in mesenchymal stem cell growth medium 2 (PromoCell, cat. C-28009). For all experiments, HUVEC and hMSC were used at passages </=5, while the malignant cell lines were used at passages </=15. […]

[1] = second compound 0.1 µM, first compound 0.0316 µM
[2] = second compound 0.316 µM, first compound 0.0316 µM
[3] = second compound 1 µM, first compound 0.0316 µM
[4] = second compound 3.16 µM, first compound 0.0316 µM
[5] = second compound 10 µM, first compound 0.0316 µM
[6] = second compound 0.1 µM, first compound 0.1 µM
[7] = second compound 0.1 µM, first compound 0.316 µM
[8] = second compound 0.1 µM, first compound 1 µM
[9] = second compound 0.1 µM, first compound 3.16 µM
[10] = second compound 0.1 µM, first compound 10 µM
[11] = second compound 0.316 µM, first compound 0.1 µM
[12] = second compound 0.316 µM, first compound 0.316 µM
[13] = second compound 0.316 µM, first compound 1 µM
[14] = second compound 0.316 µM, first compound 3.16 µM
[15] = second compound 0.316 µM, first compound 10 µM
[16] = second compound 1 µM, first compound 0.1 µM
[17] = second compound 1 µM, first compound 0.316 µM
[18] = second compound 1 µM, first compound 1 µM
[19] = second compound 1 µM, first compound 3.16 µM
[20] = second compound 1 µM, first compound 10 µM
[21] = second compound 3.16 µM, first compound 0.1 µM
[22] = second compound 3.16 µM, first compound 0.316 µM
[23] = second compound 3.16 µM, first compound 1 µM
[24] = second compound 3.16 µM, first compound 3.16 µM
[25] = second compound 3.16 µM, first compound 10 µM
[26] = second compound 10 µM, first compound 0.1 µM
[27] = second compound 10 µM, first compound 0.316 µM
[28] = second compound 10 µM, first compound 1 µM
[29] = second compound 10 µM, first compound 3.16 µM
[30] = second compound 10 µM, first compound 10 µM
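Note: compound exposure lasted 7 days before the readout.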
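Throughout, for viability, T/C: 100% = DMSO vehicle control viability.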

## CC(=O)Nc1cccc(-n2c(=O)n(C3CC3)c(=O)c3c(Nc4ccc(I)cc4F)n(C)c(=O)c(C)c32)c1 + C=CC(=O)N1CCN(c2nc(=O)n(-c3c(C)ccnc3C(C)C)c3nc(-c4c(O)cccc4F)c(F)cc23)C(C)C1
Second compound 0.1 µM
  IC50: 10.5 nM
Second compound 0.316 µM
  IC50: 9.41 nM
Second compound 1 µM
  IC50: 11.3 nM
Second compound 3.16 µM
  IC50: 31.6 nM
Second compound 10 µM
  IC50: 2.79 nM
Second compound 0.1 µM, first compound 0.0001 µM
  viability, T/C: 88.7%
Second compound 0.1 µM, first compound 0.000316 µM
  viability, T/C: 81.9%
Second compound 0.1 µM, first compound 0.001 µM
  viability, T/C: 66.7%
Second compound 0.1 µM, first compound 0.00316 µM
  viability, T/C: 60.1%
Second compound 0.1 µM, first compound 0.01 µM
  viability, T/C: 62.9%
[1]
  viability, T/C: 9.67%
Second compound 0.316 µM, first compound 0.0001 µM
  viability, T/C: 97.1%
Second compound 0.316 µM, first compound 0.000316 µM
  viability, T/C: 94.5%
Second compound 0.316 µM, first compound 0.001 µM
  viability, T/C: 74.1%
Second compound 0.316 µM, first compound 0.00316 µM
  viability, T/C: 71.3%
Second compound 0.316 µM, first compound 0.01 µM
  viability, T/C: 53.8%
[2]
  viability, T/C: 10.6%
Second compound 1 µM, first compound 0.0001 µM
  viability, T/C: 88.5%
Second compound 1 µM, first compound 0.000316 µM
  viability, T/C: 97.4%
Second compound 1 µM, first compound 0.001 µM
  viability, T/C: 93.9%
Second compound 1 µM, first compound 0.00316 µM
  viability, T/C: 59.5%
Second compound 1 µM, first compound 0.01 µM
  viability, T/C: 62.6%
[3]
  viability, T/C: 12.9%
Second compound 3.16 µM, first compound 0.0001 µM
  viability, T/C: 123%
Second compound 3.16 µM, first compound 0.000316 µM
  viability, T/C: 99%
Second compound 3.16 µM, first compound 0.001 µM
  viability, T/C: 62.8%
Second compound 3.16 µM, first compound 0.00316 µM
  viability, T/C: 54%
Second compound 3.16 µM, first compound 0.01 µM
  viability, T/C: 64.7%
[4]
  viability, T/C: 19.6%
Second compound 10 µM, first compound 0.0001 µM
  viability, T/C: 85.8%
Second compound 10 µM, first compound 0.000316 µM
  viability, T/C: 82.4%
Second compound 10 µM, first compound 0.001 µM
  viability, T/C: 49.1%
Second compound 10 µM, first compound 0.00316 µM
  viability, T/C: 50.9%
Second compound 10 µM, first compound 0.01 µM
  viability, T/C: 44.7%
[5]
  viability, T/C: 28.3%

## COc1cc(Nc2ncc3c(n2)-c2ccc(Cl)cc2C(c2c(F)cccc2OC)=NC3)ccc1C(=O)O + C=CC(=O)N1CCN(c2nc(=O)n(-c3c(C)ccnc3C(C)C)c3nc(-c4c(O)cccc4F)c(F)cc23)C(C)C1
Second compound 0.1 µM
  IC50: > 10000 nM
Second compound 0.316 µM
  IC50: > 10000 nM
Second compound 1 µM
  IC50: > 10000 nM
Second compound 3.16 µM
  IC50: > 10000 nM
Second compound 10 µM
  IC50: > 10000 nM
[1]
  viability, T/C: 102%
[6]
  viability, T/C: 114%
[7]
  viability, T/C: 122%
[8]
  viability, T/C: 99.9%
[9]
  viability, T/C: 96.8%
[10]
  viability, T/C: 103%
[2]
  viability, T/C: 101%
[11]
  viability, T/C: 93.8%
[12]
  viability, T/C: 98%
[13]
  viability, T/C: 108%
[14]
  viability, T/C: 95.2%
[15]
  viability, T/C: 72.7%
[3]
  viability, T/C: 129%
[16]
  viability, T/C: 109%
[17]
  viability, T/C: 107%
[18]
  viability, T/C: 127%
[19]
  viability, T/C: 106%
[20]
  viability, T/C: 83.3%
[4]
  viability, T/C: 126%
[21]
  viability, T/C: 109%
[22]
  viability, T/C: 103%
[23]
  viability, T/C: 110%
[24]
  viability, T/C: 107%
[25]
  viability, T/C: 88.4%
[5]
  viability, T/C: 136%
[26]
  viability, T/C: 111%
[27]
  viability, T/C: 118%
[28]
  viability, T/C: 127%
[29]
  viability, T/C: 119%
[30]
  viability, T/C: 90.3%

## COc1cc2nccc(Oc3ccc(NC(=O)C4(C(=O)Nc5ccc(F)cc5)CC4)cc3)c2cc1OC + C=CC(=O)N1CCN(c2nc(=O)n(-c3c(C)ccnc3C(C)C)c3nc(-c4c(O)cccc4F)c(F)cc23)C(C)C1
Second compound 0.1 µM
  IC50: > 10000 nM
Second compound 0.316 µM
  IC50: 3110 nM
Second compound 1 µM
  IC50: > 10000 nM
Second compound 3.16 µM
  IC50: 2580 nM
Second compound 10 µM
  IC50: 723 nM
[1]
  viability, T/C: 115%
[6]
  viability, T/C: 96.3%
[7]
  viability, T/C: 91.7%
[8]
  viability, T/C: 104%
[9]
  viability, T/C: 65.1%
[10]
  viability, T/C: 69%
[2]
  viability, T/C: 105%
[11]
  viability, T/C: 96.6%
[12]
  viability, T/C: 97.1%
[13]
  viability, T/C: 96.3%
[14]
  viability, T/C: 49.3%
[15]
  viability, T/C: 48.5%
[3]
  viability, T/C: 108%
[16]
  viability, T/C: 115%
[17]
  viability, T/C: 98.4%
[18]
  viability, T/C: 109%
[19]
  viability, T/C: 63.7%
[20]
  viability, T/C: 57.2%
[4]
  viability, T/C: 106%
[21]
  viability, T/C: 92.8%
[22]
  viability, T/C: 98.2%
[23]
  viability, T/C: 82.3%
[24]
  viability, T/C: 43%
[25]
  viability, T/C: 34.4%
[5]
  viability, T/C: 82.6%
[26]
  viability, T/C: 80.6%
[27]
  viability, T/C: 54.3%
[28]
  viability, T/C: 58.1%
[29]
  viability, T/C: 10.7%
[30]
  viability, T/C: 18.5%
